Experimental findings from US20240316047A1, “INHIBITORS OF RNA HELICASE DHX9 AND USES THEREOF” (ACCENT THERAPEUTICS, INC., priority 2022, published 2024) are described below.

Assay [1] has as its target Human recombinant DHX9 protein (Homo sapiens (Human), UniProt Q08211). The experiment in a line: DHX9 ATPase assay (ADP-Glo). It counts as biochemical. To be noted: for IC50: read-out: DHX9 Biochemical Inflection Point. Background: ADP-Glo turns the ADP formed in a reaction into a luminescent signal.
In assay [2] the test system is circBRIP1 in HCT116 cells. Nature of the assay: DHX9 circBRIP1 cellular target engagement TaqMan multiplex assay. To be noted: read-out: DHX9 Cellular Target Engagement. The assay is classed as cell-based.
Assay [3] concerns circBRIP1 in HCT116 cells. Nature of the assay: DHX9 circBRIP1 cellular target engagement SYBR Green assay. It counts as cell-based.
The mark [4] stands for this setting: Homo sapiens, HCT-116, Taqman assay (*).

Human recombinant DHX9 protein, sequence (Q08211 whole entry): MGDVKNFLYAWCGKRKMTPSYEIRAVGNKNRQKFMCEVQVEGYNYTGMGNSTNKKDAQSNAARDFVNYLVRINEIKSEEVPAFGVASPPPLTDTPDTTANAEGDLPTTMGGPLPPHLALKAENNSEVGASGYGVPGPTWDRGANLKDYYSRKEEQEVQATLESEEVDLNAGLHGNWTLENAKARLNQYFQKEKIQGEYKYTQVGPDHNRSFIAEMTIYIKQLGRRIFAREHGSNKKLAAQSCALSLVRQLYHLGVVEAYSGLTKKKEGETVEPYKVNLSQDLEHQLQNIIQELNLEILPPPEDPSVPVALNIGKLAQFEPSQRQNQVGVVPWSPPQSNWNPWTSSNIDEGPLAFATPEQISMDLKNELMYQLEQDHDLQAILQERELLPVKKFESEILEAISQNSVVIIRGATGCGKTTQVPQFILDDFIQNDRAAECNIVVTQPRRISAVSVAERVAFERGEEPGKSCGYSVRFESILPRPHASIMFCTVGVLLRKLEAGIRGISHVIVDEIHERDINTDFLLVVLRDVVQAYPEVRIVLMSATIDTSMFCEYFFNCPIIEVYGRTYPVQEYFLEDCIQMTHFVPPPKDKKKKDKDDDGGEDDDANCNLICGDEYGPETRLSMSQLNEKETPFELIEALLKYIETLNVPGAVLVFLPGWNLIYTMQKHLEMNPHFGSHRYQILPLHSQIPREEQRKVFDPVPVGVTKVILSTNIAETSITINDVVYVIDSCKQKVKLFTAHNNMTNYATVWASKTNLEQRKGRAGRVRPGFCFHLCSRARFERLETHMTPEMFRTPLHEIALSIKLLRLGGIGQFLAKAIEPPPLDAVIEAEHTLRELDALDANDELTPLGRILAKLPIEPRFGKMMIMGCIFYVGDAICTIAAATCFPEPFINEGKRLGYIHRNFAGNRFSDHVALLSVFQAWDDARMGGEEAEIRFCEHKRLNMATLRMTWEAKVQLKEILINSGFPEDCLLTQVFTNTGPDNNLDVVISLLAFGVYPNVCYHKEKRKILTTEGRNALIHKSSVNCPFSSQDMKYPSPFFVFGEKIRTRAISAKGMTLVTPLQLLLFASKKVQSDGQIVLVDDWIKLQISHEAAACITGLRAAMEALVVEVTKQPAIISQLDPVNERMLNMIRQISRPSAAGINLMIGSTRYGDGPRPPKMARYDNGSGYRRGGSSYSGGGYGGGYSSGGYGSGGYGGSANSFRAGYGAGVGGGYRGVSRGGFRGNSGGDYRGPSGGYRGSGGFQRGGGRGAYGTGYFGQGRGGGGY

`CC(Oc1cccnc1-c1cc(C(=O)Nc2cc(Cl)cc(NS(C)(=O)=O)c2)cn1C)c1cc(F)cc(C(F)(F)F)c1` (single isomer, unassigned) [Example 629, N-(3-chloro-5-methanesulfonamidophenyl)-5-{3-[1-[3-fluoro-5-(trifluoromethyl)phenyl]ethoxy]pyridin-2-yl}-1-methyl-1H-pyrrole-3-carboxamide]: in assay [1], the “DHX9 Biochemical Max Inhibition” value was determined as 74.8 and the IC50 was determined as 28.9 nM. Besides, in assay [2] (Taqman assay (*)), the EC50 came to 112 nM.
Take `CS(=O)(=O)Nc1cc(F)cc(NC(=O)c2cnn(-c3ccccc3OCc3ccccc3)c2)c1` [Example 430]: in assay [1], the “DHX9 Biochemical Max Inhibition” value was 74.9 and the IC50 turned out to be 142 nM. Also, the EC50 in assay [3] (Homo sapiens, HCT-116, SyBr assay (^+), read-out: DHX9 Cellular Target Engagement) turned out to be 1170 nM.
With `CS(=O)(=O)Nc1cc(Cl)cc(NC(=O)c2cnn(-c3ncccc3OCc3cccc(Br)c3)c2)c1` [Example 231], in assay [1], the “DHX9 Biochemical Max Inhibition” value is given as 66.3% and the IC50 came out at 49.1 nM. Besides, in assay [3] (Homo sapiens, HCT-116, values marked +, read-out: DHX9 Cellular Target Engagement EC50), the EC50 is 203 nM.
Regarding `CS(=O)(=O)Nc1cc(Cl)cc(NC(=O)c2cnn(-c3ncccc3OCc3cc(F)cc(F)c3)c2)c1` [Example 187], in assay [1], the “DHX9 Biochemical Max Inhibition” value worked out at 82.4% and the IC50 was 3.2 nM. The EC50 in assay [3] (values marked +, read-out: DHX9 Cellular Target Engagement EC50) is 50.4 nM.
On to `Cn1cc(C(=O)Nc2cc(Cl)cc(NS(C)(=O)=O)c2)cc1-c1ncc(F)cc1CCc1cncc(F)c1` [Example 728], for which, in assay [1], the “DHX9 Biochemical Max Inhibition” value amounted to 62.5 and the IC50 came to 158 nM. The EC50 in assay [2] (setting [4]) was found to be 1350 nM.
For `Cn1cc(C(=O)Nc2cc(Cl)cc(NS(C)(=O)=O)c2)cc1-c1ncc(N2CC3C(C2)C3(C)C)cc1F` (centres unmarked) [Example 516] the same measures were 57.7, 204 nM and 220 nM.
In the case of `CC(Oc1cccnc1-c1cc(C(=O)Nc2cc(Cl)cc(NS(C)(=O)=O)c2)cn1C)c1cc(F)cc(C(F)(F)F)c1` (single isomer, unassigned) [Example 628, N-(3-chloro-5-methanesulfonamidophenyl)-5-{3-[1-[3-fluoro-5-(trifluoromethyl)phenyl]ethoxy]pyridin-2-yl}-1-methyl-1H-pyrrole-3-carboxamide], in assay [1], the “DHX9 Biochemical Max Inhibition” value amounted to 58.1 and the IC50 stood at 537 nM. Besides, the EC50 in assay [2] (Taqman assay (*)) came out at 1080 nM.
For `Cn1cc(C(=O)Nc2cc(Cl)cc(NS(C)(=O)=O)c2)cc1-c1ccccc1/C=C/c1cncc(F)c1` [Example 727], in assay [1], the “DHX9 Biochemical Max Inhibition” value is 55.3 and the IC50 was found to be 9030 nM.
For `Cc1sc(C(=O)Nc2cc(Cl)cc(NS(C)(=O)=O)c2)cc1-c1ncc(C(F)(F)F)cc1C#N` [Example 367] the same measures were 63.5% and 55.9 nM.
As for `Cc1cccnc1-c1cc(C(=O)Nc2cc(Cl)cc(NS(C)(=O)=O)c2)cn1C` [Example 81], the “DHX9 Biochemical Max Inhibition” value in assay [1] amounted to 66.7%.
As to `Cc1cc(C(=O)Nc2cc(Cl)cc(NS(C)(=O)=O)c2)cn1-c1ccc(N2CCN(C(=O)C(C)C)CC2)cn1` [Example 283], in assay [1], the “DHX9 Biochemical Max Inhibition” value is reported as 78% and the IC50 worked out at 29.2 nM.
The like results for `Cc1sc(C(=O)Nc2cc(Cl)cc(NS(C)(=O)=O)c2)cc1-c1ncccc1OCc1ccccc1` [Example 34] were, in that order, 75.2% and 6.3 nM.
The like results for `CCOc1cnc(-n2cc(C(=O)Nc3cc(Cl)cc(NS(C)(=O)=O)c3)cc2C(F)(F)F)nc1` [Example 693] were, in that order, 64.9 and 408 nM.
The like results for `Cn1cc(C(=O)Nc2cc(Cl)cc(NS(C)(=O)=O)c2)cc1-c1ncc(N2CC(F)(F)C2)cc1F` [Example 599] were, in that order, 88.7 and 19.2 nM.
On to `CCS(=O)(=O)Nc1cc(Cl)cc(NC(=O)c2cc(-c3ccccn3)c(C)s2)c1` [Example 28], for which, in assay [1], the “DHX9 Biochemical Max Inhibition” value amounted to 68.3% and the IC50 worked out at 4.2 nM.
Turning to `Cn1cc(C(=O)Nc2cc(Cl)cc(NS(C)(=O)=O)c2)cc1-c1ccc(N2CC(F)C2)cn1` [Example 539], in assay [1], the “DHX9 Biochemical Max Inhibition” value was 76 and the IC50 was 18.1 nM.
For `CS(=O)(=O)Nc1cc(Cl)cc(NC(=O)c2coc(-c3ccccc3)c2)c1` [Example 125] the same measures were 56.7% and 330 nM.
For `Cc1cc(C(=O)Nc2cc(Cl)cc(NS(C)(=O)=O)c2)cn1-c1ccc(N2CC(F)(F)C2)cn1` [Example 399] the same measures were 72.1 and 11.4 nM.
In the case of `Cc1cc(C(=O)Nc2cc(Cl)cc(NS(C)(=O)=O)c2)cn1-c1ccc(N2CCC3(CC3)C2)cn1` [Example 522], in assay [1], the “DHX9 Biochemical Max Inhibition” value is 71.8 and the IC50 came to 40.8 nM.
For `CS(=O)(=O)Nc1cc(Cl)cc(NC(=O)c2cc(C(=O)N3CCN(c4ccccc4)CC3)n(-c3ccccn3)c2)c1` [Example 654], in assay [1], the “DHX9 Biochemical Max Inhibition” value is reported as 72.7 and the IC50 stood at 21.6 nM.
The like results for `CSc1ccc(-n2cc(C(=O)Nc3cc(Cl)cc(NS(C)(=O)=O)c3)cn2)nc1` [Example 218] were, in that order, 59% and 76.5 nM.
For the molecule `Cc1cc(C(=O)Nc2cc(Cl)cc(NS(C)(=O)=O)c2)cn1-c1ncc(N2CC(F)(F)C2)cc1OC1CCC1` [Example 673], in assay [1], the “DHX9 Biochemical Max Inhibition” value is 70.2 and the IC50 turned out to be 104 nM.
The like results for `CS(=O)(=O)Nc1cc(Cl)cc(NC(=O)c2cc(-c3ncccc3OCc3cccnc3)n(CC(F)(F)F)c2)c1` [Example 185] were, in that order, 80.5% and 4.7 nM.
As to `Cc1cc(C(=O)Nc2cc(Cl)cc(NS(C)(=O)=O)c2)cn1-c1ccc(N2CCOC2=O)cn1` [Example 416], in assay [1], the “DHX9 Biochemical Max Inhibition” value is on record as 81.8 and the IC50 was found to be 13.5 nM.
In the case of `CCS(=O)(=O)Nc1cc(Cl)cc(NC(=O)c2cc(-c3ncc(OC(C)(C)C)cn3)c(C)s2)c1` [Example 566], in assay [1], the “DHX9 Biochemical Max Inhibition” value is reported as 66 and the IC50 is 186 nM.
`Cn1cc(C(=O)Nc2cc(Cl)cc(NS(C)(=O)=O)c2)cc1-c1ncc(N2CC(F)C2)cc1F` [Example 466]: in assay [1], the “DHX9 Biochemical Max Inhibition” value turned out to be 82.2 and the IC50 stood at 11.1 nM.
On to `CS(=O)(=O)Nc1cc(Br)cc(NC(=O)c2cnn(-c3ccc(F)cn3)c2)c1` [Example 39], for which, in assay [1], the “DHX9 Biochemical Max Inhibition” value was 52.3% and the IC50 was 70.1 nM.
The like results for `CS(=O)(=O)Nc1cc(Cl)cc(NC(=O)c2cc3cccc(F)c3s2)c1` [Example 297] were, in that order, 57% and 997 nM.
For `Cc1sc(C(=O)Nc2cc(Cl)cc(NS(C)(=O)=O)c2)cc1-c1ncc(C(C)(O)C2CN(C)C2)cc1F` (centres unmarked) [Example 653] the same measures were 75.7 and 2 nM.
For `Cn1cc(C(=O)Nc2cc(Cl)cc(NS(C)(=O)=O)c2)cc1-c1ncc(N2CC(C(F)(F)F)C2)cn1` [Example 493] the same measures were 67 and 24.8 nM.
On to `Cc1sc(C(=O)Nc2cc(Cl)cc(NS(C)(=O)=O)c2)cc1-c1ncc(C2(F)COC2)cn1` [Example 680], for which, in assay [1], the “DHX9 Biochemical Max Inhibition” value stood at 95 and the IC50 came to 3 nM.
For `CS(=O)(=O)Nc1cc(Cl)cc(NC(=O)c2cc3c(F)ccc(F)c3s2)c1` [Example 325] the same measures were 63.9% and 591 nM.
The like results for `Cn1nc(-c2ccccn2)cc1C(=O)Nc1cc(Cl)cc(NS(C)(=O)=O)c1` [Example 141] were, in that order, 54.9% and 442 nM.
For `CCS(=O)(=O)Nc1cc(Cl)cc(NC(=O)c2cc(-c3ncccn3)c(C)s2)c1` [Example 27] the same measures were 68% and 6.4 nM.
Regarding `CS(=O)(=O)Nc1cc(Cl)cc(NC(=O)c2cnn(-c3ncc(N4CC5(COC5)C4)cc3OCc3cc(F)cc(F)c3)c2)c1` [Example 258], in assay [1], the “DHX9 Biochemical Max Inhibition” value is recorded as 72.9% and the IC50 amounted to 4.7 nM.
Consider `CS(=O)(=O)Nc1cc(Br)cc(NC(=O)c2cnn(-c3cccc(C(F)F)n3)c2)c1` [Example 56], for which, in assay [1], the “DHX9 Biochemical Max Inhibition” value was 48.8% and the IC50 stood at 197 nM.
The like results for `Cc1sc(C(=O)Nc2cc(Cl)cc(NS(C)(=O)=O)c2)cc1-c1ncc(F)cc1-c1ccc(=O)n(C)c1` [Example 606] were, in that order, 71.8 and 26 nM.
For `CS(=O)(=O)Nc1cc(F)cc(NC(=O)c2cc(-c3ccccc3O)cs2)c1` [Example 114] the same measures were 66.4% and 43.5 nM.
The like results for `Cc1cc(C(=O)Nc2cc(Cl)cc(NS(C)(=O)=O)c2)cn1-c1ccc(OC2COC2)cn1` [Example 668] were, in that order, 82.3 and 7.3 nM.
Take `CS(=O)(=O)Nc1cc(Cl)cc(NC(=O)c2cnn(C3CCNCC3)c2)c1` [Example 145, N-(3-chloro-5-(methylsulfonamido)phenyl)-1-(piperidin-4-yl)-1H-pyrazole-4-carboxamide]: in assay [1], the “DHX9 Biochemical Max Inhibition” value was 67.9% and the IC50 was found to be 58 nM.
The like results for `Cn1cc(C(=O)Nc2cc(Cl)cc(NS(C)(=O)=O)c2)cc1-c1ncc(N2CCC(F)(F)C2)cn1` [Example 526] were, in that order, 61.7 and 17.4 nM.
For `CS(=O)(=O)Nc1cc(Cl)cc(NC(=O)c2cnn(-c3ncccc3OCc3cnco3)c2)c1` [Example 66] the same measures were 62.9% and 56.6 nM.
For `CN1CCC(n2cc(C(=O)Nc3cc(Cl)cc(NS(C)(=O)=O)c3)cn2)CC1=O` (centres unmarked) [Example 307], in assay [1], the “DHX9 Biochemical Max Inhibition” value was determined as 70.4% and the IC50 is 143 nM.
